# Values quoted from earlier work in patent US20190048020A1, “DEUTERIUM-MODIFIED CFTR MODULATORS” (VERTEX PHARMACEUTICALS (EUROPE) LIMITED, priority 2016, published 2019).
# Target: T1, CFTR G5551D mutation (Homo sapiens, UniProt P13569, G551D)
# T1 construct: phase II study in patients with the CFTR G5551D mutation; host or cells: patients (in vivo, sweat chloride read-out)
# Details: phase II study, patients with the CFTR G5551D mutation
# T1 sequence (P13569 whole entry G551D): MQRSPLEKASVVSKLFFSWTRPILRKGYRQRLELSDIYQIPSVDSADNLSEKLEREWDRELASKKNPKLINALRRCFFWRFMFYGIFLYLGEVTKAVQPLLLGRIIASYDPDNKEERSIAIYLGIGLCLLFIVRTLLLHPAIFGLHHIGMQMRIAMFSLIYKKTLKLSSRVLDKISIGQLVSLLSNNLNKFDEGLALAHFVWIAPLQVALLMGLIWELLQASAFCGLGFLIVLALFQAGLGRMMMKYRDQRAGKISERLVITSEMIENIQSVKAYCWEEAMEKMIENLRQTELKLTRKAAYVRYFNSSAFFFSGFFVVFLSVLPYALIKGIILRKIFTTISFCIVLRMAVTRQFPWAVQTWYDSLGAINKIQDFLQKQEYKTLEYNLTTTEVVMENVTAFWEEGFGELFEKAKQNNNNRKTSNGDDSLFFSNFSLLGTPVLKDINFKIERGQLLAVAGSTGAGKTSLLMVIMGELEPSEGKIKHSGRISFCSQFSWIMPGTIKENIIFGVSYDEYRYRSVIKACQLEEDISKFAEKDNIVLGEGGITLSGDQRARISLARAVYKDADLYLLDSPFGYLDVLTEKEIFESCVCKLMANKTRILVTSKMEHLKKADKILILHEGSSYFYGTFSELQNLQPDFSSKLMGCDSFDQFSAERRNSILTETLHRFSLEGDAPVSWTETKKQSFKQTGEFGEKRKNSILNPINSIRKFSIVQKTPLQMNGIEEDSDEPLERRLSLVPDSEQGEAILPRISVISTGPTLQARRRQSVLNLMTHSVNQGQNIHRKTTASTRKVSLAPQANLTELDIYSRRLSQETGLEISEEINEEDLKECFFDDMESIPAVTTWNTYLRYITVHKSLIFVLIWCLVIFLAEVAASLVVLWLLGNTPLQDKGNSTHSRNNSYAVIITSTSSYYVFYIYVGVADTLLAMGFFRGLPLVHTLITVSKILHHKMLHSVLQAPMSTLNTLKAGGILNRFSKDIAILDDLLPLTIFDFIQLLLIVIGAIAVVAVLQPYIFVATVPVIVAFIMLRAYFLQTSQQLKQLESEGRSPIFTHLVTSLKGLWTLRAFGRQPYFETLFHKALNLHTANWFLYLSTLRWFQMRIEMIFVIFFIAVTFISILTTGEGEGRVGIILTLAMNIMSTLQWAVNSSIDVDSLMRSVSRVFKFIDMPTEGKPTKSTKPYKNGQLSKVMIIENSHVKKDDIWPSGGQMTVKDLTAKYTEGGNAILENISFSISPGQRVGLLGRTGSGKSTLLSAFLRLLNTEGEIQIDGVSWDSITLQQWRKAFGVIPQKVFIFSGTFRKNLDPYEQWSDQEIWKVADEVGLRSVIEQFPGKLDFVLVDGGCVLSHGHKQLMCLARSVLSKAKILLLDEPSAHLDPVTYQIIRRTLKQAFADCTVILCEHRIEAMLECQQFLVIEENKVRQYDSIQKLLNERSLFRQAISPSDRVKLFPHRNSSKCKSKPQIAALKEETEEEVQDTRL
structure (smiles),measurement,value
CC1(C)Cc2c(sc(NC(=O)c3ccn[nH]3)c2C(N)=O)C(C)(C)O1 [GLPG1837],sweat chloride concentration,statistically significant dose-dependent decrease
